From patent EP4620959A1, “CYCLIC COMPOUNDS USED AS MULTI-TARGET KINASE INHIBITORS AND PREPARATION METHOD THEREFOR” (Shanghai Institute of Organic Chemistry, Chinese Academy of …, priority 2022, dated 2024)

Target: LRRK2 wt (Homo sapiens, UniProt Q5S007)
Experiment: Kinase activity inhibition assay (ADP-Glo), LRRK2 wt
Type: biochemical
Settings: ATP 20 µM, compound at 100 nM
Experimental: The kinase activity inhibition assay was performed by ICE Bioscience (Beijing) using ADP-Glo and HTRF methods.
Table 1.1-1 ADP-Glo Buffer
Table 1.2-1 ADP-Glo Kinase and Substrate Formulation
SD is the standard error, and AVE is the average value. Table 2-1 LRRK2 Activity Inhibition Test Results

Chain of LRRK2 wt (Q5S007 whole entry): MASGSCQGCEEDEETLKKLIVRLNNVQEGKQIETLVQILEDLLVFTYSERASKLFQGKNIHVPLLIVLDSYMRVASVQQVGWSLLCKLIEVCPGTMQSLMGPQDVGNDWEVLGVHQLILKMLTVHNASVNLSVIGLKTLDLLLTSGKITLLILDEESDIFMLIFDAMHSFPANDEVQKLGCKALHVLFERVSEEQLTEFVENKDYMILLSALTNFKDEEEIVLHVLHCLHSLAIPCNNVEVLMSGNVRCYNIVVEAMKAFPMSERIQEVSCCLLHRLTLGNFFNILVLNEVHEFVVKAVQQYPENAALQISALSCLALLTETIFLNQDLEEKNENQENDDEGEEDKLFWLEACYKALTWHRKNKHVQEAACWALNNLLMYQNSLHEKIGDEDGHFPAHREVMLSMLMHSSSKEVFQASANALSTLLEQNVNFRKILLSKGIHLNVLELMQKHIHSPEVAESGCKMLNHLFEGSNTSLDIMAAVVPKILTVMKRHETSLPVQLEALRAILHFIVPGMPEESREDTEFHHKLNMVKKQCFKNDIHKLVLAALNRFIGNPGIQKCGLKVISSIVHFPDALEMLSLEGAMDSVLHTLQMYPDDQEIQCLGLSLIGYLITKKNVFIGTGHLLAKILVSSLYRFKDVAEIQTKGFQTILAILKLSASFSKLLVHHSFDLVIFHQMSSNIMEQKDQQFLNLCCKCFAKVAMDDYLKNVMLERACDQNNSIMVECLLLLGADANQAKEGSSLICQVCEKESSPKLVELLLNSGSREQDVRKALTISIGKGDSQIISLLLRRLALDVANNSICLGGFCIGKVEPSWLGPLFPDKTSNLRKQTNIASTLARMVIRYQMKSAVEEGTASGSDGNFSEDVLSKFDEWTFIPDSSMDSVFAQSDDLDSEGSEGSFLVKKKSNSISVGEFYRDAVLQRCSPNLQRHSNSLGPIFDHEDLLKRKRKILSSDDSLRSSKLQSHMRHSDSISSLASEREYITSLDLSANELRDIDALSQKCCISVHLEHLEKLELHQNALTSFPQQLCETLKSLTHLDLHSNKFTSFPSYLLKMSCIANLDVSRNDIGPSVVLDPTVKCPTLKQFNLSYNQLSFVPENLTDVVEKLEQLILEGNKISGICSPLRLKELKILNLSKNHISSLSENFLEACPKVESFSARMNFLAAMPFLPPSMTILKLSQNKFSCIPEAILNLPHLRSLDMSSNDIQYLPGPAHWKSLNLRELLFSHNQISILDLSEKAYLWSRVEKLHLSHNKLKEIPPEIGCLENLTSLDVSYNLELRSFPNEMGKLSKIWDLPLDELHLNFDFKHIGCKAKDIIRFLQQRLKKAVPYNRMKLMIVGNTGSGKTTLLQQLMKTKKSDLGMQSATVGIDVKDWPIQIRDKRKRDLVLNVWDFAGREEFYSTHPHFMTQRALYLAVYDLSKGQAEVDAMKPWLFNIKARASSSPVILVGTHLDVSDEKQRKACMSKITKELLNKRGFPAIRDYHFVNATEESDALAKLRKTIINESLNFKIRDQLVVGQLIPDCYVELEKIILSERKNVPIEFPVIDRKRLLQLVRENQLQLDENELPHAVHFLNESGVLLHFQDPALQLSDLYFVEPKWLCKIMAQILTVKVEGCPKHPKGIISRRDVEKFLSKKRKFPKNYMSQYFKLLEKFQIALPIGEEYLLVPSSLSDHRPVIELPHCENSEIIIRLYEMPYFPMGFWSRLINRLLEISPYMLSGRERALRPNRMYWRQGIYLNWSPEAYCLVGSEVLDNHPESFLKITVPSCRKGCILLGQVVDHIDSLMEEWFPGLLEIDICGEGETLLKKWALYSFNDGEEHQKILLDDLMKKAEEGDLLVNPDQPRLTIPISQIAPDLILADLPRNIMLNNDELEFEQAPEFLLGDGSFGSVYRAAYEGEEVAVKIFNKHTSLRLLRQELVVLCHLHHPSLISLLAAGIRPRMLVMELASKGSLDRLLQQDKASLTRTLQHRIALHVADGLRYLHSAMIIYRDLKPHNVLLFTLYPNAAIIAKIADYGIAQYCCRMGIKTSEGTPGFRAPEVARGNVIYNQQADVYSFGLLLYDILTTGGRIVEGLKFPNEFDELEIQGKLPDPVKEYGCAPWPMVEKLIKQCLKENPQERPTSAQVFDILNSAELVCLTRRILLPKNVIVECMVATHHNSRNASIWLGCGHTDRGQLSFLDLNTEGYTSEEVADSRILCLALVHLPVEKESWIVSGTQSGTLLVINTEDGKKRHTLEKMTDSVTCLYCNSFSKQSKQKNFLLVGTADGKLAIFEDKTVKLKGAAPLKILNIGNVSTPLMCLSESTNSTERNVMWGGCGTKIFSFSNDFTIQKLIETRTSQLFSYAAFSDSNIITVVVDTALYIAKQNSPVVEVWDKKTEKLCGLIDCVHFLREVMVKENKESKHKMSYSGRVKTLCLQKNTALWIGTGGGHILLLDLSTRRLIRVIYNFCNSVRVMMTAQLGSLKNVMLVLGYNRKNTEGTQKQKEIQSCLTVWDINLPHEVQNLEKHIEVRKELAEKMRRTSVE

| LRRK2 wt inhibition rate at 100 nM [%@100 nM] | SMILES |
| --- | --- |
| 42.08 | Cc1nn2cc1Nc1ncc(C(F)(F)F)c(n1)NC1CCCC(C1)NC(=O)C2(C)C (stereo not shown) [Example T-42, (5^3R,E)-1^3,8,8-Trimethyl-3^5-(trifluoromethyl)-1^1H-2,4,6-triaza-3(2,4)-pyrimidina-1(4,1)-pyrazola-5(1,3)-cyclohexacyclooctan-7-one] |

Same assay, conditions: read-out: LRRK2 wt inhibition rate at 100 nM, ATP 20 µM, compound at 100 nM

| SMILES | inhibition at 0.1 µM [%] |
| --- | --- |
| Cc1nn2cc1Nc1ncc(C(F)(F)F)c(n1)NCCCn1cc(nn1)C2(C)C [Example T-16, (3^4E,5^4Z)-3^3,4,4-Trimethyl-1^5-(trifluoromethyl)-3^1H,5^1H-2,9-diaza-1(2,4)-pyrimidina-5(4,1)-triazole-3(4,1)-pyrazolacyclononane] | 86.1 |
| Cc1nn2cc1Nc1ncc(C(F)(F)F)c(n1)NCCCn1ncc(n1)C2(C)C [Example T-17, (3^4E,5^3Z)-3^3,4,4-Trimethyl-1^5-(trifluoromethyl)-3^1H,5^2H-2,9-diaza-1(2,4)-pyrimidina-5(4,2)-triazole-3(4,1)-pyrazolacyclononane] | 96.9 |
| Cc1nn2cc1Nc1ncc(C(F)(F)F)c(n1)N(C)CCCN(C)C(=O)C2(C)C [Example T-31, (E)-3^3,4,4,6,10-Pentamethyl-1^5-(trifluoromethyl)-3^1H-2,6,10-triaza-1(2,4)-pyrimidina--3(4,1)-pyrazolacyclodecan-5-one] | 8.85 |
| Cc1nn2cc1Nc1ncc(C(F)(F)F)c(n1)NCCCN(C)C(=O)C2(C)C [Example T-33, (E)-3^3,4,4,6-Tetramethyl-1^5-(trifluoromethyl)-3^1H-2,6,10-triaza-1(2,4)-pyrimidina-3(4,1)-pyrazolacyclodecan-5-one] | 2.45 |
| Cc1nn2cc1Nc1ncc(C(F)(F)F)c(n1)NCCCN(C)CC2(C)C [Example T-34, (E)-3^3,4,4,6-Tetramethyl-1^5-(trifluoromethyl)-3^1H-2,6,10-triaza-1(2,4)-pyrimidina-3(4,1)-pyrazolacyclodecane] | -12.7 |
| Cc1nn2cc1Nc1ncc(C(F)(F)F)c(n1)NCCn1cc(nn1)CC2(C)C [Example T-35, (3^4E,6^4Z)-3^3,4,4-Trimethyl-1^5-(trifluoromethyl)-3^1H,6^1H-2,9-diaza-1(2,4)-pyrimidina-6(4,1)-triazole-3(4,1)-pyrazolacyclononane] | 9.41 |
| Cc1nn2cc1Nc1ncc(C(F)(F)F)c(n1)NCCn1ncc(n1)CC2(C)C [Example T-36, (3^4E,6^3Z)-3^3,4,4-Trimethyl-1^5-(trifluoromethyl)-3^1H,6^2H-2,9-diaza-1(2,4)-pyrimidina-6(4,2)-triazole-3(4,1)-pyrazolacyclononane] | 28.9 |
| Cc1nn2cc1Nc1ncc(C(F)(F)F)c(n1)NCCCOC(=O)C2(C)C [Example T-37, (E)-3^3,4,4-Trimethyl-1^5-(trifluoromethyl)-3^1H-6-oxa-2,10-diaza-1(2,4)-pyrimidina-3(4,1)-pyrazolacyclodecan-5-one] | 83.4 |
| Cc1nn2cc1Nc1ncc(C(F)(F)F)c(n1)NCCC(C)NC(=O)C2(C)C (stereo not shown) [Example T-38, (E)-3^3,4,4,7-Tetramethyl-1^5-(trifluoromethyl)-3^1H-2,6,10-triaza-1(2,4)-pyrimidina-3(4,1)-pyrazolacyclodecan-5-one] | 37.7 |
| Cc1nn2cc1Nc1ncc(C(F)(F)F)c(n1)NCCC(C)(C)NC(=O)C2(C)C [Example T-39, (E)-3^3,4,4,7,7-Pentamethyl-1^5-(trifluoromethyl)-3^1H-2,6,10-triaza-1(2,4)-pyrimidina-3(4,1)-pyrazolacyclodecan-5-one] | 28.9 |
| Cc1nn2cc1Nc1ncc(C(F)(F)F)c(n1)NC/C=C/CNC(=O)C2(C)C [Example T-40, (3^4E,8E)-3^3,4,4-Trimethyl-1^5-(trifluoromethyl)-3^1H-2,6,11-triaza-1(2,4)-pyrimidina-3(4,1)-pyrazolylundecapentaene-5-one] | 56.1 |
| Cc1nn2cc1Nc1ncc(C(F)(F)F)c(n1)N[C@H]1CC[C@H](CC1)NC(=O)C2(C)C [Example T-41, (5^1s,5^4s,E)-1^3,8,8-Trimethyl-3^5-(trifluoromethyl)-1^1H-2,4,6-triaza-3(2,4)-pyrimidina-1(4,1)-pyrazola-5(1,4)-cyclohexacyclooctan-7-one] | 20.8 |
| Cc1nn2cc1Nc1ncc(C(F)(F)F)c(n1)NCC(F)(F)COC(=O)C2(C)C [Example T-43, (E)-8,8-Difluoro-3^3,4,4-trimethyl-1^5-(trifluoromethyl)-3^1H-6-oxa-2,10-diaza-1(2,4)-pyrimidina-3(4,1)-pyrazolacyclodecan-5-one] | 64.6 |
| Cc1nn2cc1Nc1ncc(C(F)(F)F)c(n1)NCC1(CC1)CNC(=O)C2(C)C [Example T-44, (E)-3',4',4'-Trimethyl-5'-(trifluoromethyl)spiro[cyclopropane-8'-2,6,10-triaza-1(2,4)-pyrimidina-3(4,1)-pyrazolacyclodecan]-5'-one] | 56.8 |
| Cc1nn2cc1Nc1ncc(C(F)(F)F)c(n1)NC(C)(C)CCNC(=O)C2(C)C [Example T-45, (E)-3^3,4,4,9,9-Pentamethyl-1^5-(trifluoromethyl)-3^1H-2,6,10-triaza-1(2,4)-pyrimidina-3(4,1)-pyrazolacyclodecan-5-one] | -1.97 |

Now from value to compound:

| inhibition at 0.1 µM [%] | SMILES |
| --- | --- |
| 55 | Cc1nn2cc1Nc1ncc(C(F)(F)F)c(n1)NCCCOCCNC(=O)C2(C)C [Example T-2, (E)-3^3,4,4-Trimethyl-1^5-(trifluoromethyl)-3^1H-9-oxa-2,6,13-triaza-1(2,4)-pyrimidina-3(4,1)-pyrazolacyclotridecan-5-one] |
| -0.5 | Cc1nn2cc1Nc1ncc3[nH]nc(c3n1)CCCNC(=O)C2(C)C [Example T-9, (E)-3^3,4,4-Trimethyl-1^1H,3^1H-2,6-diaza-1(5,3)pyrazolo[4,3-d]pyrimidine-3(4,1)-pyrazolacyclononan-5-one] |
| 6.61 | Cc1nn2cc1Nc1ncc3[nH]cc(c3n1)CCCNC(=O)C2(C)C [Example T-18, (E)-3^3,4,4-Trimethyl-1^5H,3^1H-2,6-diaza-1(2,7)-pyrrolo[3,2-d]pyrimidine-3(4,1)-pyrazolacyclononan-5-one] |
| 11.6 | Cc1nn2cc1Nc1ncc3c(n1)c(nn3C)CCCNC(=O)C2(C)C [Example T-19, (E)-1^1,3^3,4,4-Tetramethyl-1^1H,3^1H-2,6-diaza-1(5,3)-pyrazolo[4,3-d]pyrimidine-3(4,1)-pyrazinacyclononan-5-one] |
| 0.84 | Cc1nn2cc1Nc1ncc3nn(C)c(c3n1)CCCNC(=O)C2(C)C [Example T-20, (1^3E,1^4Z,3^4E)-1^2,3^3,4,4-Tetramethyl-1^2H,3^1H-2,6-diaza-1(5,3)-pyrazolo[4,3-d]pyrimidine-3(4,1)-pyrazinacyclononan-5-one] |
| 60.1 | Cc1nn2cc1Nc1ncc3c(n1)c(cn3C)CCCNC(=O)C2(C)C [Example T-21, (E)-1^5,3^3,4,4-Tetramethyl-1^5H,3^1H-2,6-diaza-1(2,7)-pyrrolo[3,2-d]pyrimidine-3(4,1)-pyrazolacyclononan-5-one] |
| 92.5 | Cc1nn2cc1Nc1ncc3c(Cl)cn(c3n1)CCCCNC(=O)C2(C)C [Example T-22, (E)-1^5-Chloro-3^3,4,4-trimethyl-1^7H,3^1H-2,6-diaza-1(2,7)-pyrrolo[2,3-d]pyrimidine-3(4,1)-pyrazolacyclodecan-5-one] |
| 19.1 | Cc1nn2cc1Nc1ncc3c(Cl)cn(c3n1)CCCCN(C)C(=O)C2(C)C [Example T-23, (E)-1^5-Chloro-3^3,4,4,6-tetramethyl-1^7H,3^1H-2,6-diaza-1(2,7)-pyrrolo[2,3-d]pyrimidine-3(4,1)-pyrazolacyclodecan-5-one] |
| 57.3 | Cc1nn2cc1Nc1ncc3ccc(n3n1)CCCNC(=O)C2(C)C [Example T-24, (1^1Z,3^4E)-3^3,4,4-Trimethyl-3^1H-2,6-diaza-1(2,7)-pyrrolo[2,1-f][1,2,4]triazine-3(4,1)-pyrazolacyclononan-5-one] |
| 98.4 | Cc1nn2cc1Nc1ncc3c(Cl)cc(n3n1)CCCCNC(=O)C2(C)C [Example T-26, (1^1Z,3^4E)-1^5-Chloro-3^3,4,4-trimethyl-3^1H-2,6-diaza-1(2,7)-pyrrolo[2,1-f][1,2,4]triazine-3(4,1)-pyrazolacyclodecan-5-one] |
| 88 | CC1(C)C(=O)NCCCc2cc(Cl)c3cnc(nn23)Nc2cn1nc2Cl [Example T-27, (1^1Z,3^4E)-1^53^3-Dichloro-4,4-dimethyl-3^1H-2,6-diaza-1(2,7)-pyrrolo[2,1-f][1,2,4]triazine-3(4,1)-pyrazolacyclononan-5-one] |
| 98.3 | CC1(C)C(=O)NCCCc2cc(Cl)c3cnc(nn23)Nc2cn1nc2C1CC1 [Example T-28, (1^1Z,3^4E)-1^5-Chloro-3^3-cyclopropyl-4,4-dimethyl-3^1H-2,6-diaza-1(2,7)-pyrrolo[2,1-f][1,2,4]triazine-3(4,1)-pyrazolacyclononan-5-one] |
| 95.6 | Cc1nn2cc1Nc1ncc3c(C(F)(F)F)cc(n3n1)CCCNC(=O)C2(C)C [Example T-29, (1^1Z,3^4E)-3^3,4,4-Trimethyl-1^5-(trifluoromethyl)-3^1H-2,6-diaza-1(2,7)-pyrrolo[2,1-f][1,2,4]triazine-3(4,1)-pyrazolacyclononan-5-one] |
| 61.3 | Cc1nn2cc1Nc1ncc3c(C#N)cc(n3n1)CCCNC(=O)C2(C)C [Example T-30, (1^1Z,3^4E)-3^3,4,4-Trimethyl-5-oxo-3^1H-2,6-diaza-1(2,7)-pyrrolo[2,1-f][1,2,4]triazine-3(4,1)-pyrazolacyclononan-1^5-carbonitrile] |
| 91.6 | Cc1nn2cc1Nc1ncc(C(F)(F)F)c(n1)N(C)CCCNC(=O)C2(C)C [Example T-32, (E)-3^3,4,4,10-Tetramethyl-1^5-(trifluoromethyl)-3^1H-2,6,10-triaza-1(2,4)-pyrimidina-3(4,1)-pyrazolacyclodecan-5-one] |
